Experimental data from patent US11234960B2, “Compositions and methods for improving mitochondrial function and treating neurodegenerative diseases and cognitive disorders” (Amazentis SA, priority 2010, dated 2022).

Experiments:
[1] = tested on: maternally separated mice; test: Elevated O-maze in early-life stress mice; assay type: in vivo; settings: 90 mg/kg/day in food (FIG. 40)
Procedure: At postnatal day 1, pups were culled to have 6 pups per mother. From postnatal day 1 to 14, unpredictable maternal separation (MS) of a period of 3 hours daily was carried out. Maternal separation was performed at random times (from 8 am to 2 pm) to avoid the habituation of the mother to the procedure. The protocol consisted of removing pups from their mother to another cage at room temperature for a 3 hour period, after which the pups were returned to their original nest. These groups are denoted as early-life stress in the figures. A control group of dam/pups was left undisturbed and is denoted in the figures as normal.
One week after maternal separation mice were separated into two groups. One control group received the standard mouse chow diet (Untreated), while the other group received the ellagitannin punicalagin admixed into the food and designed to deliver a dose of 90 mg/kg/day to the mice. Treatment with the diet began 1 week after the termination of the maternal separation treatment. […]
To examine the effect of early life stress, mice were placed at the entrance of one of the areas of the maze with the 5 cm walls, with the nose facing the closed arm, and were allowed to explore the EOM for 5 min. […] The time spent in each arm (closed versus open) was calculated, with an entry into the arm only being considered to have occurred when the animal placed all four paws in the arm.

[2] = tested on: C57BL/6J mice exposed to chronic unpredictable stress; test: Contextual fear conditioning in chronically stressed mice; assay type: in vivo; settings: 25 mg/kg/d in diet, daily exposure for four days (FIG. 31)
Procedure: Three weeks before the initiation of the chronic stress protocol mice were separated into four different groups. One group received standard mouse chow diet (Control), while the remaining three groups received varying doses of extract 1011, an extract derived from pomegranate juice. Low dose corresponded to an extract dose of 21 mg/kg/d of gallic acid equivalents of polyphenols (GAE PPE), the medium dose corresponded to an extract dose of 43 mg/kg/d of GAE PPE, the high dose corresponded to an extract dose of 86 mg/kg/d of GAE PPE (see Table 5).
Three weeks before the initiation of the chronic stress protocol, mice were separated into two groups. […]
The unpredictable chronic stress protocol involved exposing animals to a daily stressful situation at an unpredictable moment for 4 weeks (between 8 am and 4 pm, and randomly distributed over the 28 days). […] All animals were weighed and the state of their coat was evaluated on a regular basis (every 3-5 days). […]
Contextual fear conditioning was used to test the effect of pomegranate extract on anxiety induction (i.e., learned anxiety) in mice in response to contextual recognition. […] To determine the effect of chronic stress and the various doses of pomegranate extract on the level of anxiety induced by this contextual memory, the level of anxiety-induced behavior in response to this context was measured. […]

| Structure (SMILES) | time spent in open sections of O-maze (risk taking) [1] | extinction of memory of the adverse context (freezing) [2] |
| --- | --- | --- |
| O=C1O[C@H]2[C@@H]3OC(=O)c4cc(O)c(O)c(O)c4-c4c(O)c(O)c5oc(=O)c6c(c(O)c(O)c7oc(=O)c4c5c76)-c4c(cc(O)c(O)c4O)C(=O)OC[C@H]3OC(O)[C@@H]2OC(=O)c2cc(O)c(O)c(O)c2-c2c1cc(O)c(O)c2O (mixture of isomers) [punicalagin, 2,3 hexahydroxydiphenoyl-4,6-gallagylglucose] | reversed and normalized their abnormal excessive risk taking behaviour | – |
| O=c1oc2cc(O)ccc2c2ccc(O)cc12 [urolithin A, 3,8-Dihydroxydibenzo-α-pyrone] | – | significant improvement in adverse memory extinction |
